Assay results reported in patent publication US20230293404A1, “Compositions Comprising Natural Polymers and One or More (Bio)-Alkanediols” (Symrise AG, priority 2020, published 2023).

What was measured:
[1] = test system: microbial load of natural polymers; test: Microbial load of mixtures of natural polymers with alkanediols (plating, CFU count); format: cell-based, bacteria
Method: The following tests were performed to show the influence of different alkanediols on the microbial load of natural polymers.
A selection of natural polymers as specified in Table 1 was systematically analyzed in combination with different 1,2-alkanediols and 2,3-alkanediols (0.5%). The polymers were chosen to be representative from different polymer classes:
A mixture of the natural polymer (concentration as recommended by supplier) with water and 1,2-alkanediol (0.5%) or 2,3-alkanediol (0.5%) or a mixture of 1,2-alkanediol and 2,3-alkanediol (0.5% final concentration) was prepared, as representative of a cold formulation preparation processes, and directly sampled for determination of microbial load. Additionally, the mixtures were stored at 40° C. and again sampled for microbial load after 2 days and 7 days.
The microbial load of the mixtures was determined by plating 1000 μl (or respective dilutions of the material) on an agar plate based on universal bacterial growth medium (Caseinpepton-Sojamehlpepton-Bouillon, Merck 1.05459+Agar No. 1, Oxoid LP0011). The plates were then incubated at 37° C. for 5 days and then photo documented. In parallel, bacterial colonies were counted (CFU—colony forming units per ml).

[2] = Maximum solubility of alkanediols in water (visual assessment); format: physicochemical; details: assessed at ambient temperature after 24 h storage at 5° C.; visual observation
Excerpt: The water solubility of a substance is the saturation mass concentration of the substance in water at a given temperature. The determination of the solubility in water relates to essentially pure substances which are stable in water and not volatile.
For the determination of the maximum water solubility of an alkanediol, water and different concentrations of the respective alkanediol were blended by stirring. […] The determination of whether the alkanediol has dissolved in water is based entirely on visual observation.

[3] = Physical state of alkanediols and alkanediol mixtures at RTP; format: physicochemical; details: at RTP (room temperature, normal pressure); FIG. 3 and FIG. 4
Excerpt: The term “liquid alkanediol” within the context of the present invention means an alkanediol component which is liquid at room or ambient temperature and under normal pressure, i.e. standard RTP conditions.
FIG. 3 is a photograph showing from left to right samples of the liquid 1,2-pentanediol, 1,2-hexanediol, 1,2-heptanediol, 2,3-heptanediol, 2,3-octanediol and 2,3-undecanediol in comparison to the solid 1,2-octanediol, 1,2-undecanediol, 1,2-nonanediol and the liquid 2,3-nonanediol. The first six alkanediols are liquid at RTP, whereas 1,2-octanediol, 1,2-nonanediol and 1,2-undecanediol are solid substances at RTP; 2,3-nonanediol is also liquid at RTP.
FIG. 4 is a representative photograph of samples of mixtures of 1,2-alkanediols with the respective 2,3-alkanediol. All mixtures are liquid. They are shown in the following order: 1,2-heptanediol (95%)+2,3-heptanediol (5%), 1,2-octanediol (95%)+2,3-octanediol (5%), and 1,2-nonanediol (95%)+2,3-nonanediol (5%).

## CCCCCC(O)C(C)O (centres unmarked) [2,3-octanediol]
[1]; Covathick (0.5%) in water + 0.5% 2,3-alkanediol, 2 days storage at 40° C.
  Bacterial load (colony forming units): 0 CFU per mL
[1]; Covathick (0.5%) in water + 0.5% 2,3-alkanediol, 7 days storage at 40° C.
  Bacterial load (colony forming units): 0 CFU per mL
[1]; Covathick (0.5%) in water + 0.5% 2,3-alkanediol, fresh
  Bacterial load (colony forming units): 4 CFU per mL
[1]; Genuvisco (0.5%) in water + 0.5% 2,3-alkanediol, 2 days storage at 40° C.
  Bacterial load (colony forming units): 0 CFU per mL
[1]; Genuvisco (0.5%) in water + 0.5% 2,3-alkanediol, 7 days storage at 40° C.
  Bacterial load (colony forming units): 0 CFU per mL
[1]; Genuvisco (0.5%) in water + 0.5% 2,3-alkanediol, fresh
  Bacterial load (colony forming units): 5 CFU per mL
[1]; Polycos-N 75 (0.5%) in water + 0.5% 2,3-alkanediol, 2 days storage at 40° C.
  Bacterial load (colony forming units): 0 CFU per mL
[1]; Polycos-N 75 (0.5%) in water + 0.5% 2,3-alkanediol, 7 days storage at 40° C.
  Bacterial load (colony forming units): 0 CFU per mL
[1]; Polycos-N 75 (0.5%) in water + 0.5% 2,3-alkanediol, fresh
  Bacterial load (colony forming units): 1 CFU per mL
[1]; Xanthan Gum (0.5%) in water + 0.5% 2,3-alkanediol, 2 days storage at 40° C.
  Bacterial load (colony forming units): 0 CFU per mL
[1]; Xanthan Gum (0.5%) in water + 0.5% 2,3-alkanediol, 7 days storage at 40° C.
  Bacterial load (colony forming units): 0 CFU per mL
[1]; directly after preparation of the mixtures as well as after 7 days storage, Table 3
  Effect on the microbial load of the natural polymer solutions (in words): superior antimicrobial activity
[2]
  Maximum solubility in water: 1.5 % by weight
[3]
  Physical state: liquid
